PubChem BioAssay (NCI)
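GI50: concentration for 50% inhibition of growth. The concentration for full growth arrest is given as TGI.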

Tests used:
Experiment in all cases: growth of human tumour cells (NCI), 384-well format
RXF 393 renal = test system: RXF 393 renal
HCT-15 colon = test system: HCT-15 colon
HT29 colon = test system: HT29 colon
IGROV1 ovarian = test system: IGROV1 ovarian
PC-3 prostate = test system: PC-3 prostate
BT-549 breast = test system: BT-549 breast
COLO 205 colon = test system: COLO 205 colon
SF-295 CNS = test system: SF-295 CNS
SNB-75 CNS = test system: SNB-75 CNS
EKVX NSCLC = test system: EKVX NSCLC
NCI-H460 NSCLC = test system: NCI-H460 NSCLC
T-47D breast = test system: T-47D breast
M14 melanoma = test system: M14 melanoma
NCI-H522 lung = test system: NCI-H522 lung
DU-145 prostate = test system: DU-145 prostate
HS 578T breast = test system: HS 578T breast
HL-60(TB) leukemia = test system: HL-60(TB) leukemia
CAKI-1 renal = test system: CAKI-1 renal
UACC-62 melanoma = test system: UACC-62 melanoma
SN12C renal = test system: SN12C renal
SF-268 CNS = test system: SF-268 CNS
U251 glioblastoma = test system: U251 glioblastoma
TK-10 renal = test system: TK-10 renal
UACC-257 melanoma = test system: UACC-257 melanoma
SF-539 CNS = test system: SF-539 CNS
HCC-2998 colon = test system: HCC-2998 colon
OVCAR-3 ovarian = test system: OVCAR-3 ovarian
A498 renal = test system: A498 renal
A549 NSCLC = test system: A549 NSCLC
SW-620 colon = test system: SW-620 colon
HOP-62 NSCLC = test system: HOP-62 NSCLC
NCI-H322M lung = test system: NCI-H322M lung
MALME-3M melanoma = test system: MALME-3M melanoma
MDA-MB-435 melanoma = test system: MDA-MB-435 melanoma
SNB-19 CNS = test system: SNB-19 CNS
LOX IMVI melanoma = test system: LOX IMVI melanoma
UO-31 renal = test system: UO-31 renal
786-0 renal = test system: 786-0 renal
NCI-H226 lung = test system: NCI-H226 lung
SK-OV-3 ovarian = test system: SK-OV-3 ovarian
KM12 colon = test system: KM12 colon
RPMI-8226 leukemia = test system: RPMI-8226 leukemia
MCF7 breast = test system: MCF7 breast
OVCAR-4 ovarian = test system: OVCAR-4 ovarian
SR leukemia = test system: SR leukemia
CCRF-CEM leukemia = test system: CCRF-CEM leukemia
ACHN renal = test system: ACHN renal
SK-MEL-5 melanoma = test system: SK-MEL-5 melanoma
MDA-MB-231 breast = test system: MDA-MB-231 breast
OVCAR-8 ovarian = test system: OVCAR-8 ovarian
HOP-92 NSCLC = test system: HOP-92 NSCLC
MOLT-4 leukemia = test system: MOLT-4 leukemia
NCI-H23 lung = test system: NCI-H23 lung
SK-MEL-28 melanoma = test system: SK-MEL-28 melanoma
HCT-116 colon = test system: HCT-116 colon
K-562 leukemia = test system: K-562 leukemia
NCI/ADR-RES ovarian = test system: NCI/ADR-RES ovarian
MDA-MB-468 breast = test system: MDA-MB-468 breast

Question: What does the source list for `C=CC(=O)N[C@@H]1CN(c2nc(Nc3cn(C)nc3OC)c3ncn(C)c3n2)C[C@H]1F`?
Answer: GI50 (RXF 393 renal): 24.8 µM; TGI (RXF 393 renal): 83.8 µM; GI50 (HCT-15 colon): 37.1 µM; TGI (HCT-15 colon): > 100 µM; GI50 (HT29 colon): 20.5 µM; TGI (HT29 colon): 54.4 µM; GI50 (IGROV1 ovarian): 3.27 µM; TGI (IGROV1 ovarian): 30.3 µM; GI50 (PC-3 prostate): 39.4 µM; TGI (PC-3 prostate): > 100 µM; GI50 (BT-549 breast): 25.4 µM; TGI (BT-549 breast): 70.9 µM; GI50 (COLO 205 colon): 23 µM; TGI (COLO 205 colon): 53.8 µM; GI50 (SF-295 CNS): 41.5 µM; TGI (SF-295 CNS): > 100 µM; GI50 (SNB-75 CNS): 22.9 µM; TGI (SNB-75 CNS): 59.9 µM; GI50 (EKVX NSCLC): 0.338 µM; TGI (EKVX NSCLC): 24.9 µM; GI50 (NCI-H460 NSCLC): 21.9 µM; TGI (NCI-H460 NSCLC): 42.1 µM; GI50 (T-47D breast): 20.7 µM; TGI (T-47D breast): > 100 µM; GI50 (M14 melanoma): 16 µM; TGI (M14 melanoma): 41.8 µM; GI50 (NCI-H522 lung): 0.0389 µM; TGI (NCI-H522 lung): 15.7 µM; GI50 (DU-145 prostate): 13.8 µM; TGI (DU-145 prostate): 49.1 µM; GI50 (HS 578T breast): 21.5 µM; TGI (HS 578T breast): 55.9 µM; GI50 (HL-60(TB) leukemia): 12.3 µM; TGI (HL-60(TB) leukemia): 25.1 µM; GI50 (CAKI-1 renal): 1.26 µM; TGI (CAKI-1 renal): > 100 µM; GI50 (UACC-62 melanoma): 23.1 µM; TGI (UACC-62 melanoma): > 100 µM; GI50 (SN12C renal): 34.2 µM; TGI (SN12C renal): > 100 µM; GI50 (SF-268 CNS): 29 µM; TGI (SF-268 CNS): > 100 µM; GI50 (U251 glioblastoma): 33.2 µM; TGI (U251 glioblastoma): > 100 µM; GI50 (TK-10 renal): 0.319 µM; TGI (TK-10 renal): 39.1 µM; GI50 (UACC-257 melanoma): 33.6 µM; TGI (UACC-257 melanoma): > 100 µM; GI50 (SF-539 CNS): 29.9 µM; TGI (SF-539 CNS): 89.6 µM; GI50 (HCC-2998 colon): 20.9 µM; TGI (HCC-2998 colon): 50 µM; GI50 (OVCAR-3 ovarian): 12.3 µM; TGI (OVCAR-3 ovarian): 37.2 µM; GI50 (A498 renal): 27.6 µM; TGI (A498 renal): > 100 µM; GI50 (A549 NSCLC): 21.4 µM; TGI (A549 NSCLC): > 100 µM; GI50 (SW-620 colon): 24.4 µM; TGI (SW-620 colon): 62.2 µM; GI50 (HOP-62 NSCLC): 31.9 µM; TGI (HOP-62 NSCLC): > 100 µM; GI50 (NCI-H322M lung): 0.0896 µM; TGI (NCI-H322M lung): 12.7 µM; GI50 (MALME-3M melanoma): 17.5 µM; TGI (MALME-3M melanoma): 60.2 µM; GI50 (MDA-MB-435 melanoma): 17.2 µM; TGI (MDA-MB-435 melanoma): 34.3 µM; GI50 (SNB-19 CNS): 30 µM; TGI (SNB-19 CNS): > 100 µM; GI50 (LOX IMVI melanoma): 34.6 µM; TGI (LOX IMVI melanoma): > 100 µM; GI50 (UO-31 renal): 26.3 µM; TGI (UO-31 renal): > 100 µM; GI50 ([…]-0 renal): 37.3 µM; TGI (786-0 renal): > 100 µM; GI50 (NCI-H226 lung): 20.2 µM; TGI (NCI-H226 lung): 62.2 µM; GI50 (SK-OV-3 ovarian): 12.2 µM; TGI (SK-OV-3 ovarian): > 100 µM; GI50 (KM12 colon): 39.2 µM; TGI (KM12 colon): > 100 µM; GI50 (RPMI-8226 leukemia): 18 µM; TGI (RPMI-8226 leukemia): 36.7 µM; GI50 (MCF7 breast): 18 µM; TGI (MCF7 breast): 73.7 µM; GI50 (OVCAR-4 ovarian): 49.8 µM; TGI (OVCAR-4 ovarian): > 100 µM; GI50 (SR leukemia): 1.52 µM; TGI (SR leukemia): 3.2 µM; GI50 (CCRF-CEM leukemia): 15.5 µM; TGI (CCRF-CEM leukemia): 29.2 µM; GI50 (ACHN renal): 1.9 µM; TGI (ACHN renal): > 100 µM; GI50 (SK-MEL-5 melanoma): 19.2 µM; TGI (SK-MEL-5 melanoma): 49.4 µM; GI50 (MDA-MB-231 breast): 24.3 µM; TGI (MDA-MB-231 breast): 98.4 µM; GI50 (OVCAR-8 ovarian): 19.5 µM; TGI (OVCAR-8 ovarian): 58.4 µM; GI50 (HOP-92 NSCLC): 23.4 µM; TGI (HOP-92 NSCLC): > 100 µM; GI50 (MOLT-4 leukemia): 16.6 µM; TGI (MOLT-4 leukemia): 30.8 µM; GI50 (NCI-H23 lung): 16.2 µM; TGI (NCI-H23 lung): 35.6 µM; GI50 (SK-MEL-28 melanoma): 28.5 µM; TGI (SK-MEL-28 melanoma): > 100 µM; GI50 (HCT-116 colon): 33.4 µM; TGI (HCT-116 colon): > 100 µM; GI50 (K-562 leukemia): 23.2 µM; TGI (K-562 leukemia): 52 µM; GI50 (NCI/ADR-RES ovarian): > 100 µM; TGI (NCI/ADR-RES ovarian): > 100 µM; GI50 (MDA-MB-468 breast): 0.0291 µM; TGI (MDA-MB-468 breast): 0.114 µM
